Measured values taken from paper PMC6222871, “Suppression of Hepatitis C Virus Genome Replication and Particle Production by a Novel Diacylglycerol Acyltransferases Inhibitor” (Molecules : A Journal of Synthetic Chemistry and Natural …, 2018).
Where two headings read alike, the source gives them in different places.

Tests used:
[1] = system: DGATs (rat liver microsome); design: method as in PMID 23141914, PMID 23242135; conditions: cited from earlier work
[2] = system: recombinant DGAT-1; design: method as in PMID 23242135; conditions: recombinant DGAT-1, [14C] oleoyl-CoA as acyl-donor; cited from earlier work
[3] = system: luciferase-linked genotype 2a HCV RNAs; experiment: microbe, parasite or virus in culture; format: cell-based, hepatitis C virus; conditions: read-out: EC50 (HCV replication)
Experimental: (§1) To order to study impacts of DGAT inhibitors on HCV genome replication independently of the particle production, we decided to examine effects of these twelve DGAT inhibitors on the levels of viral RNA genome and cell viability in parallel. […] Then, we treated them with an increasing concentration of each DGAT inhibitor. Then, luciferase and MTT-based cell viability assays were performed to determine EC50 and CC50 (cytotoxic concentration required to kill 50% of treated cells) values, respectively.
(§2) Cell viability was measured with EZ-CYTOX (10% tetrazolium salt; Dogen, Gyeonggi-do, Korea) as described previously. Anti-HCV replication analysis using a luciferase assay was conducted as previously described.

[4] = MTT-based cell viability assay (EZ-CYTOX); conditions: human
Experimental: as §1, §2

[5] = system: HCV genotype 2a (Huh7.5-J6/JFH1); experiment: HCV particle production: infectivity of supernatant on naive Huh7.5 cells by real-time RT-PCR; format: cell-based, hepatitis C virus; conditions: 10 μM
Experimental: A922500, a commercially available DGAT-1-specific inhibitor was used as a positive control [10]. […] Therefore, we decided to examine effects of these twelve DGAT inhibitors on HCV particle production as well as RNA genome replication in parallel. For this purpose, we transfected Huh7.5 cells with in vitro-transcribed genotype 2a HCV RNAs (Huh7.5-J6/JFH1) [16] and treated them with each DGAT inhibitor for 6 and 72 h at 10 μM. HCV genome replication as well as host GAPDH RNA levels was quantitated by a real-time RT-PCR analysis. For assessment of HCV particle production, we harvested and filtered the supernatant from Huh7.5-J6/JFH1 cells treated with DGAT inhibitors and incubated the supernatant with naïve huh7.5 cells for 72 h. Then, infectivity was measured by a real-time RT-PCR analysis.
Huh7.5-J6/JFH-1 cells were seeded into 6-well plates at a density of 3 × 10^5 cells per well with DMEM containing 10% FBS. […] Total RNAs were extracted from treated cells and virus-containing media were harvested at each time point. Naïve Huh7.5 cells were infected with these virus-containing media after concentration with centricons.

[6] = system: recombinant DGAT-2; design: method as in PMID 23242135; conditions: cited from earlier work
[7] = system: HepG2 cells; design: method as in PMID 23242135; conditions: [14C] glycerol as substrate; cited from earlier work
[8] = system: HCV NS3 (Huh7.5-J6/JFH1, genotype 2a); experiment: western blot of HCV NS3 protein in Huh7.5-J6/JFH1 cells; conditions: positive control
Experimental: Due to the tight coupling of viral genome replication to its protein expression, inhibition of viral RNA genome replication leads to a subsequent reduction of viral protein expression.
(A) Dose-dependent western blot analysis of Huh7.5-J6/JFH1 cells treated with increasing concentrations of 10j for 72 h by measuring protein expression levels of HCV NS3 relative to the β-actin. Daclatasvir, an NS5A inhibitor was used as a positive control. (B) Time-dependent western blot analysis of J6/JFH1 RNA-transfected Huh7.5 cells treated with 8 μM of 10j for increasing periods of time analyzed by measuring protein expression levels of HCV NS3 relative to the β-actin. (C,D) Same experiments were performed as in (A,B) to study effects of 10j on the expression levels of the NS5A protein of Huh7.5-Bart79I cells in a dose- as well as time-dependent manners.
Western blot analysis of Huh7.5-J6/JFH1 or Bart79I cells treated with 10j was conducted as previously described. Relative amounts of HNF4α proteins were quantified by using an HNF4α mouse monoclonal antibody (M04), clone 4E2 (Abnova) with the dilution of 1:1000.

[9] = Hepatitis C virus, Huh7.5, luciferase-linked genotype 2a HCV RNA in Huh7.5 cells

| SMILES | IC50 [1] [µM] | IC50 [2] [µM] | EC50 [3, 9] [µM] | CC50 [4] [µM] | effect on HCV particle production ([5]; 6 h (Figure 1B)) | effect on HCV particle production ([5]; 72 h (Figure 1D)) | IC50 [6] [µM] | TG % (10 μM in HepG2), relative [14C] triglyceride percentage [7] [%] | EC50 ([3]; luciferase-linked genotype 2a HCV RNA in Huh7.5 cells) [µM] | expression of viral proteins [8] |
| --- | --- | --- | --- | --- | --- | --- | --- | --- | --- | --- |
| CC(C)NC(=O)c1cccc(NC(=O)/C=C/c2cn(C(=O)OC(C)(C)C)c3ccccc23)c1 [5a] | 8.8 | > 100 | 1.9 | 3.7 | able to block HCV particle production | suppress the viral particle production | 6.9 |  |  |  |
| CC(C)(C)OC(=O)n1cc(/C=C/C(=O)Nc2cccc(C(=O)N3CCCC3)c2)c2ccccc21 [5c] | 13.2 | 89.1 | > 10 | > 10 |  | suppress the viral particle production | 6.8 |  |  |  |
| CC(C)(C)OC(=O)n1cc(/C=C/C(=O)Nc2cccc(C(=O)NCc3ccco3)c2)c2ccccc21 [5h] | 2.5 | > 100 | 2.1 | 5.1 | able to block HCV particle production | suppress the viral particle production | 6.9 | 33.2 |  |  |
| Cc1ccc(CNC(=O)c2cccc(NC(=O)/C=C/c3cn(C(=O)OC(C)(C)C)c4ccccc34)c2)o1 [5j] | 9.4 | > 100 | 1.1 | 3.4 |  | suppress the viral particle production | 7.4 |  |  |  |
| CC(C)CCn1cc(/C=C/C(=O)N(NC(=O)c2cccc(F)c2)C(C)C)c2ccccc21 [8h] |  | 20.4 | 6.7 | > 10 |  | suppress the viral particle production | > 10 | 71.2 |  |  |
| CC(C)CCn1cc(/C=C/C(=O)N(NC(=O)c2ccc(F)cc2)C(C)C)c2ccccc21 [8i] |  | 2.1 | 5.1 | > 10 |  | suppress the viral particle production | > 10 | 94.8 |  |  |
| CC(C)=CCn1cc(/C=C/C(=O)N(NC(=O)c2cccc(F)c2)C(C)C)c2ccccc21 [8u] |  | 1.5 | > 10 | > 10 |  | suppress the viral particle production | > 10 | 55.7 |  |  |
| O=C(c1ccc2nc(COc3ccc(C45CC6CC(CC(C6)C4)C5)cc3)[nH]c2c1)N1CCCCC1 [10e] | 27.5 |  | > 10 | > 10 |  |  |  |  |  |  |
| O=C(Nc1ccccc1)c1ccc2nc(COc3ccc(C45CC6CC(CC(C6)C4)C5)cc3)[nH]c2c1 [10f] | > 50 |  | > 10 | > 10 |  |  |  |  |  |  |
| O=C(NCc1ccccc1)c1ccc2nc(COc3ccc(C45CC6CC(CC(C6)C4)C5)cc3)[nH]c2c1 [10h] | > 50 |  | < 10 | > 10 |  |  |  |  | 7.7 |  |
| O=C(NCc1ccccn1)c1ccc2nc(COc3ccc(C45CC6CC(CC(C6)C4)C5)cc3)[nH]c2c1 [10i] | 20 |  |  | 3.9 |  |  |  |  |  |  |
| COC(=O)N[C@H](C(=O)N1CCC[C@H]1c1nc(-c2ccc(-c3ccc(-c4c[nH]c([C@@H]5CCCN5C(=O)[C@@H](NC(=O)OC)C(C)C)n4)cc3)cc2)c[nH]1)C(C)C [Daclatasvir, reference compound] |  |  |  |  |  |  |  |  |  | able to inhibit expression of viral proteins |
